Source: patent US10800790B2, “Sesquiterpenoid STAT3 inhibitors” (University of Hawaii, priority 2013, dated 2020)

Columns and labels:
[1] = tested on: U251MG glioblastoma cells; test: CyQuant cell viability/proliferation assay, U251MG; assay type: cell-based, human; design: key to Activity against U251: +, active; −, no activity; +/−, poorly active; settings: for Inhibitory effect on viability of U251MG (tumor) cells, in words: 5 micromolar; for Inhibitory effect on viability of U251MG (tumor) cells, in words / U251MG % inhibition / inhibition at 5 µM: Table 3 numbering (isolates 1-16); for U251MG % inhibition / inhibition at 5 µM: at 5 μM, 72 h; for inhibition at 5 µM: Homo sapiens, U-251; for Activity against U251: Table 1 grade, Table 1/FIG. 2 compound numbering; for Inhibitory potency compared with 22 (CyQuant): 72-h treatment, FIG. 10, synthetic derivatives of 22
Protocol: (§1) The cell viability assay was performed as previously reported (Zhang X, et al. (2010)). Briefly, a 10 millimolar concentration stock solution in dimethylsulfoxide (DMSO) of the tested molecule was first prepared. Next, the stock solution was diluted down to various working solutions in water. Thus, a formulation of the tested compound in a DMSO/water mixture was used to test for cell viability. (A novel small-molecule disrupts STAT3 SH2 domainphosphotyrosine interactions and STAT3-dependent tumor processes, Biochem Pharmacol 79:1398-1409; Zhao W, Jaganathan S, & Turkson J (2010), A cell-permeable STAT3 SH2 domain mimetic inhibits STAT3 activation and induces antitumor cell effects in vitro. J Biol Chem. 285:35855-35865). Cells (U251MG, MDA-MB-231 or NIH3T3) were obtained from ATCC (Manassas, Va.) and were cultured in 96-well plates at 2,000 cells per well for 24 h and were treated with compounds (5 micromolar concentration) for 72 h. Cell viabilty was determined using CyQuant assay, according to the manufacturer's (Invitrogen, CA, USA) instructions. Relative viability of the treated cells was normalized to the DMSO-treated control cells.

[2] = tested on: normal NIH3T3 mouse fibroblasts; test: CyQuant cell viability/proliferation assay, NIH3T3; assay type: cell-based; settings: Table 3 numbering (isolates 1-16); for NIH-3T3 % inhibition / inhibition at 5 µM: at 5 μM, 72 h; for inhibition at 5 µM: Mus musculus, NIH3T3, read-out: NIH-3T3 % inhibition
Protocol: as §1

[3] = tested on: pY705STAT3 in U251MG or MDA-MB-231 cells; test: Immunoblotting of pY705STAT3 in treated tumor cells; settings: 5 micromolar, U251MG or MDA-MB-231; for Effect on pY705STAT3 / STAT3 activity (immunoblot), in words: 0-24 h, Table 1/FIG. 2 numbering
Protocol: Positions of STATs:DNA complexes or proteins in gel are labeled; control lanes (0) represent nuclear extracts or whole-cell lysates prepared from 0.05% DMSO-treated cells. Data are representative of at least three to four independent determinations.
Lysates of equal total protein prepared in the lysis buffer (50 mM Hepes, pH 7.5, 150 mM NaCl, 2 mM EDTA, 1% Triton X-100, 0.1% SDS), were subjected to IP or Western blotting analysis. Antibodies against STAT3, pY705STAT3, Src, pY416Src, Erk1/2, and pT202/Y204Erk1/2 and GAPDH (Cell Signaling Technology, Danvers, Mass.), and anti-β-actin, and HSP105 (Santa Cruz Biotechnology, Dallas, Tex.) are from the designated sources.
Whole-cell lysates were prepared in boiling SDS sample loading buffer to extract total proteins, as reported previously. […] Nitrocellulose membranes were probed with primary antibodies, and the detection of horseradish peroxidase-conjugated secondary antibodies by enhanced chemiluminescence (Amersham) was performed. Antibodies used were monoclonal anti-pYSTAT3 and anti-STAT3 antibodies (Cell Signaling Technology, Danvers, Mass.).

[4] = tested on: MDA-MB-231 breast cancer cells; test: CyQuant cell viability/proliferation assay, MDA-MB-231; assay type: cell-based, human; settings: for MDA-MB-231 % inhibition / inhibition at 5 µM: at 5 μM, 72 h, Table 3 numbering (isolates 1-16); for inhibition at 5 µM: Homo sapiens, MDA-MB-231; for Inhibition of breast cancer MDA-MB-231, in words: 72-h treatment, FIG. 10
Protocol: as §1

## 8α-(2′Z-tigloyloxy)hirsutinolide-13-O-acetate [Compound 2]
[1]
  Inhibitory effect on viability of U251MG (tumor) cells, in words: weak inhibitory effect
  U251MG % inhibition: 48.6%
[2]
  NIH-3T3 % inhibition: 8.0%
[3]; Table 3 numbering (isolates 1-16)
  Inhibition of pY705STAT3 (immunoblot), in words: inhibited STAT3 phosphorylation
[4]
  MDA-MB-231 % inhibition: ne (ne, no effect inhibition)

## 8α-(4-hydroxytigloyloxy)-hirsutinolide [Compound 3]
[1]
  U251MG % inhibition: ne (ne, no effect inhibition)
[2]
  NIH-3T3 % inhibition: ne (ne, no effect inhibition)
[4]
  MDA-MB-231 % inhibition: ne (ne, no effect inhibition)

## CC=C(C)C(=O)OC1CC(C)C2(O)CCC(C)(C=C3OC(=O)C(CO)=C31)O2 (stereo not drawn) [Compound 1, 8α-(2′Z-tigloyloxy)hirsutinolide]
[1]
  U251MG % inhibition: ne (ne, no effect inhibition)
[2]
  NIH-3T3 % inhibition: ne (ne, no effect inhibition)
[4]
  MDA-MB-231 % inhibition: ne (ne, no effect inhibition)

## CC=C(C)C(=O)OCC1=C2C(=CC3(C)CCC(O)(O3)C(C)CC2O)OC1=O (stereo not drawn) [Compound 4, 8α-hydroxy-13-O-tigloyl-hirsutinolide]
[1]
  Inhibitory effect on viability of U251MG (tumor) cells, in words: high inhibitory effect
  U251MG % inhibition: 80.9%
[2]; 5 micromolar
  Inhibitory effect on NIH3T3 fibroblasts, in words: lower inhibitory effect
[2]
  NIH-3T3 % inhibition: 32.1%
[4]
  MDA-MB-231 % inhibition: 26.2%

## C=C(C)C(=O)OC1CC(C)C2(O)CCC(C)(C=C3OC(=O)C(CO)=C31)O2 (stereo not drawn) [Compound 5, 8α-(2-methylacryloyloxy)-hirsutinolide]
[1]
  U251MG % inhibition: ne (ne, no effect inhibition)
[2]
  NIH-3T3 % inhibition: ne (ne, no effect inhibition)
[4]
  MDA-MB-231 % inhibition: ne (ne, no effect inhibition)

## CC1(C)C[C@H](O)C[C@@]2(C)OC(=O)C=C12 [Compound 12, loliolide]
[1]
  inhibition at 5 µM: < 6%
[2]
  inhibition at 5 µM: < 6%
[4]
  inhibition at 5 µM: < 6%

## O=c1cc(-c2ccc(O)cc2)oc2cc(O)cc(O)c12 [Compound 15, apigenine]
[1]
  inhibition at 5 µM: < 6%
[2]
  inhibition at 5 µM: < 6%
[4]
  inhibition at 5 µM: < 6%

## CC=C(C)C(=O)OC1CC(C)C2(OC)CCC(C)(C=C3OC(=O)C(CO)=C31)O2 (stereo not shown) [Compound 17]
[1]
  Activity against U251: −

## CC(=CCO)C(=O)OC1CC(C)C2(O)CCC(C)(C=C3OC(=O)C(CO)=C31)O2 (stereo not shown) [Compound 21]
[1]
  Activity against U251: −

## CCC(C)C(=O)OCC1=C2/C(=C\C3(C)CCC(O)(O3)[C@H](C)C[C@@H]2O)OC1=O (stereo partly drawn) [zmm-1-18, ((4S,6R,E)-4,7-dihydroxy-6,10-dimethyl-2-oxo-2,4,5,6,7,8,9,10-octahydro-7,10-epoxycyclodeca[b]furan-3-yl)methyl 2-methylbutanoate]
[3]
  Effect on pY705STAT3 / STAT3 activity (immunoblot), in words: showed little effects on pY705STAT3

## C[C@@H]1C[C@H](O)C2=C(COC(=O)C=Cc3ccccc3)C(=O)O/C2=C/C2(C)CCC1(O)O2 (stereo partly drawn) [zmm-1-19, ((4S,6R,E)-4,7-dihydroxy-6,10-dimethyl-2-oxo-2,4,5,6,7,8,9,10-octahydro-7,10-epoxycyclodeca[b]furan-3-yl)methyl cinnamate]
[1]
  Inhibitory potency compared with 22 (CyQuant): retained the inhibitory potency as 22
[3]
  Effect on pY705STAT3 / STAT3 activity (immunoblot), in words: inhibited pY705STAT3

## CC(C)=CCCC(C)=CC(=O)OCC1=C2/C(=C\C3(C)CCC(O)(O3)[C@H](C)C[C@@H]2O)OC1=O (stereo partly drawn) [zmm-1-20, ((4S,6R,E)-4,7-dihydroxy-6,10-dimethyl-2-oxo-2,4,5,6,7,8,9,10-octahydro-7,10-epoxycyclodeca[b]furan-3-yl)methyl 3,7-dimethylocta-2,6-dienoate]
[1]
  Inhibitory potency compared with 22 (CyQuant): retained the inhibitory potency as 22
[3]
  Effect on pY705STAT3 / STAT3 activity (immunoblot), in words: inhibited pY705STAT3

## CC(C)=CC(=O)OCC1=C2/C(=C\C3(C)CCC(O)(O3)[C@H](C)C[C@@H]2O)OC1=O (stereo partly drawn) [zmm-1-21, ((4S,6R,E)-4,7-dihydroxy-6,10-dimethyl-2-oxo-2,4,5,6,7,8,9,10-octahydro-7,10-epoxycyclodeca[b]furan-3-yl)methyl 3-methyl but-2-enoate]
[3]
  Effect on pY705STAT3 / STAT3 activity (immunoblot), in words: showed little effects on pY705STAT3

## CC(C)=CCCC(C)CC(=O)OCC1=C2/C(=C\C3(C)CCC(O)(O3)[C@H](C)C[C@@H]2O)OC1=O (stereo partly drawn) [zmm-1-22, ((4S,6R,E)-4,7-dihydroxy-6,10-dimethyl-2-oxo-2,4,5,6,7,8,9,10-octahydro-7,10-epoxycyclodeca[b]furan-3-yl)methyl 3,7-dimethyloct-6-enoate]
[1]
  Inhibitory potency compared with 22 (CyQuant): retained the inhibitory potency as 22
[3]
  Effect on pY705STAT3 / STAT3 activity (immunoblot), in words: inhibited pY705STAT3

## C/C=C(\C)C(=O)OCC1=C2/C(=C\C3(C)CCC(O)(O3)[C@H](C)C[C@@H]2OC(=O)/C(C)=C/C)OC1=O (stereo partly drawn) [zmm-1-36, (4S,6R,E)-7-hydroxy-6,10-dimethyl-3-((((E)-2-methylbut-2-enoyl)oxy)methyl)-2-oxo-2,4,5,6,7,8,9,10-octahydro-7,10-epoxycyclodeca[b]furan-4-yl(E)-2-methylbut-2-enoate]
[1]
  Inhibitory potency compared with 22 (CyQuant): retained the inhibitory potency as 22
[1]; U251MG versus other cells incl. NIH3T3, Table 1/FIG. 2 numbering
  Cell-type selectivity of growth inhibition, in words: lost cell-type specificity
[3]
  Effect on pY705STAT3 / STAT3 activity (immunoblot), in words: inhibited pY705STAT3

## C/C=C(\C)C(=O)OCC1=C2/C(=C\C3(C)CCC(OC)(O3)[C@H](C)C[C@@H]2OC(=O)/C(C)=C/C)OC1=O (stereo partly drawn) [zmm-1-37, (4S,6R,E)-7-methoxy-6,10-dimethyl-3-((((E)-2-methylbut-2-enoyl)oxy)methyl)-2-oxo-2,4,5,6,7,8,9,10-octahydro-7,10-epoxycyclodeca[b]furan-4-yl(E)-2-methylbut-2-enoate]
[1]
  Inhibitory potency compared with 22 (CyQuant): retained the inhibitory potency as 22
[3]
  Effect on pY705STAT3 / STAT3 activity (immunoblot), in words: inhibited pY705STAT3
[4]
  Inhibition of breast cancer MDA-MB-231, in words: also inhibited breast cancer, MDA-MB-231

## C/C=C(\C)C(=O)O[C@H]1C[C@@H](C)C2(OC)CCC(C)(/C=C3/OC(=O)C(COC(=O)C=Cc4ccccc4)=C31)O2 (stereo partly drawn) [zmm-1-72, (4S,6R,E)-3-((cinnamoyloxy)methyl)-7-methoxy-6,10-dimethyl-2-oxo-2,4,5,6,7,8,9,10-octahydro-7,10-epoxycyclodeca[b]furan-4-yl(E)-2-methylbut-2-enoate]
[1]
  Inhibitory potency compared with 22 (CyQuant): retained the inhibitory potency as 22

## C[C@@H]1C[C@H](O)C2=C(COC(=O)/C=C/c3ccc(F)cc3)C(=O)O/C2=C/C2(C)CCC1(O)O2 (stereo partly shown) [zmm-1-78]
[4]
  Inhibition of breast cancer MDA-MB-231, in words: also inhibited breast cancer, MDA-MB-231

## C[C@@H]1C[C@H](O)C2=C(COC(=O)/C=C/c3ccc(C(F)(F)F)cc3)C(=O)O/C2=C/C2(C)CCC1(O)O2 (stereo partly shown) [zmm-1-79]
[1]
  Inhibitory potency compared with 22 (CyQuant): retained the inhibitory potency as 22

## CCCC(CCC)C(=O)OCC1=C2/C(=C\C3(C)CCC(O)(O3)[C@H](C)C[C@@H]2O)OC1=O (stereo partly shown) [zmm-1-80]
[1]
  Inhibitory potency compared with 22 (CyQuant): retained the inhibitory potency as 22

## C[C@@H]1C[C@H](O)C2=C(COC(=O)CCc3ccccc3)C(=O)O/C2=C/C2(C)CCC1(O)O2 (stereo partly drawn) [zmm-1-82, ((4S,6R,E)-4,7-dihydroxy-6,10-dimethyl-2-oxo-2,4,5,6,7,8,9,10-octahydro-7,10-epoxycyclodeca[b]furan-3-yl)methyl 3-phenylpropanoate]
[1]
  Inhibitory potency compared with 22 (CyQuant): retained the inhibitory potency as 22

## (9Z,12S,13S)-dihydroxy-9-octadecanoic acid [Compound 16]
[1]
  U251MG % inhibition: ne (ne, no effect inhibition)
[2]
  NIH-3T3 % inhibition: ne (ne, no effect inhibition)
[4]
  MDA-MB-231 % inhibition: ne (ne, no effect inhibition)
